Measurements from patent US20070179060A1, “6-(Poly-substituted aryl)-4-aminopicolinates and their use as herbicides” (priority 2006, published 2007).

Columns and labels:
Assay in all cases: Postemergence herbicidal safening in cereal crops
Assay type in all cases: in vivo
Details in all cases: Table 5, applied alone, after 3 weeks
Galium aparine = tested on: Galium aparine
Experimental: (§1) Seeds of the desired test plant species were planted in Sun Gro MetroMix® 306 planting mixture, which typically has a pH of 6.0 to 6.8 and an organic matter content of about 30 percent, in plastic pots with a surface area of 103.2 square centimeters. When required to ensure good germination and healthy plants, a fungicide treatment and/or other chemical or physical treatment was applied. The plants were grown for 7-36 days in a greenhouse with an approximate 14 hour photoperiod which was maintained at about 18° C. during the day and 17° C. during the night. Nutrients and water were added on a regular basis and supplemental lighting was provided with overhead metal halide 1000-Watt lamps as necessary. The plants were employed for testing when they reached the second or third true leaf stage. Treatments consisted of compound 42 and cloquintocet-mexyl alone and in combination. Weighed amounts were placed in 25 mL glass vials and dissolved in a volume of 97:3 v/v acetone/DMSO to obtain 9 mg ai/mL stock solutions. […] A dilution solution was prepared by mixing 1 volume of 97:3 v/v acetone/DMSO and 2 volumes of an aqueous mixture containing acetone, water, isopropyl alcohol, DMSO, Agri-dex crop oil concentrate, and Triton® X-77 surfactant in a 64.7:26.0:6.7:2.0:0.7:0.01 v/v ratio. Compound requirements are based upon a 12 mL application volume at a rate of 187 L/ha. […] Formulated compounds were applied to the plant material with an overhead Mandel track sprayer equipped with a […] nozzles calibrated to deliver 187 L/ha over an application area of 0.503 square meters at a spray height of 18 inches (43 cm) above average plant canopy height. Control plants were sprayed in the same manner with the solvent blank. The treated plants and control plants were placed in a greenhouse as described above and watered by sub-irrigation to prevent wash-off of the test compounds. After 3 weeks the condition of the test plants as compared with that of the untreated plants was determined visually and scored on a scale of 0 to 100 percent where 0 corresponds to no injury and 100 corresponds to complete kill. Colby's equation was used to determine the herbicidal effects expected from the mixtures (Colby, S. R. 1967. Calculation of the synergistic and antagonistic response of herbicide combinations. Weeds 15:20-22.). The following equation was used to calculate the expected activity of mixtures containing two active ingredients, A and B: Expected=A+B-(A×B/100) • A=observed efficacy of active ingredient A at the same concentration as used in the mixture. • B=observed efficacy of active ingredient B at the same concentration as used in the mixture.

[1] = tested on: Triticum aestivum (spring wheat)
Experimental: as §1

Papaver rhoeas = tested on: Papaver rhoeas
Experimental: as §1

[2] = tested on: Hordeum vulgare (winter barley)
Experimental: as §1

CCCCCC(C)OC(=O)COc1ccc(Cl)c2cccnc12 (stereo not shown) [Cloquintocetmexyl, cloquintocet-mexyl]
0%: % Control GALAP Ob (Galium aparine; 35 g ai/ha) | % Control GALAP Ob (Galium aparine; 70 g ai/ha) | % Control GALAP Ob (Galium aparine; 140 g ai/ha) | % Control GALAP Ob (Galium aparine; 280 g ai/ha) | % Control TRZAS Ob ([1]; 35 g ai/ha) | % Control TRZAS Ob ([1]; 70 g ai/ha) | % Control TRZAS Ob ([1]; 140 g ai/ha) | % Control TRZAS Ob ([1]; 280 g ai/ha) | % Control PAPRH Ob (Papaver rhoeas; 35 g ai/ha) | % Control PAPRH Ob (Papaver rhoeas; 70 g ai/ha) | % Control PAPRH Ob (Papaver rhoeas; 140 g ai/ha) | % Control PAPRH Ob (Papaver rhoeas; 280 g ai/ha) | % Control HORVW Ob ([2]; 35 g ai/ha) | % Control HORVW Ob ([2]; 70 g ai/ha) | % Control HORVW Ob ([2]; 140 g ai/ha) | % Control HORVW Ob ([2]; 280 g ai/ha)
